Measurements: patent US20250346600A1, “TRICYCLIC DERIVATIVES AND RELATED USES” (MOMA Therapeutics, Inc., priority 2023, published 2025)
Like-named read-outs stand apart in the source and are kept apart here.

Assays:
[1] = system: HT29 cells; assay: HT29 (MSS) 7 day viability, CellTiter Glo; assay type: cell-based; settings: 7 days, read-out: HT29 (MSS) Viability 7 Day CTGAbs AC50
Outline: (§1)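 For each line, compound dilution series (3-fold, 10 points) met a defined seeding density—HCT116 50, HT29 500 cells/well—followed by 7 days at 37 °C. Luminescent ATP signal, background-corrected with no-cell wells, gave four-parameter logistic IC50s.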

[2] = system: HCT116 cells; assay: HCT116 (MSI) 7 day viability, CellTiter Glo; assay type: cell-based; settings: 7 days, read-out: HCT116 (MSI) Viability 7 Day Abs AC50
Outline: as §1

[3] = target: T1, Full length WRN protein (aa 2-1432) (Homo sapiens (Human), UniProt Q14191); assay: WRN ATPase ADP-Glo biochemical assay, Assay Format A (10 μM ATP); settings: 0.25 nM WRN, 100 nM C6.18 ssDNA, 30 min preincubation, read-out: ATPase ADPGlo AC50 (uM)- Assay Format A
T1 sequence (Q14191 2-1432): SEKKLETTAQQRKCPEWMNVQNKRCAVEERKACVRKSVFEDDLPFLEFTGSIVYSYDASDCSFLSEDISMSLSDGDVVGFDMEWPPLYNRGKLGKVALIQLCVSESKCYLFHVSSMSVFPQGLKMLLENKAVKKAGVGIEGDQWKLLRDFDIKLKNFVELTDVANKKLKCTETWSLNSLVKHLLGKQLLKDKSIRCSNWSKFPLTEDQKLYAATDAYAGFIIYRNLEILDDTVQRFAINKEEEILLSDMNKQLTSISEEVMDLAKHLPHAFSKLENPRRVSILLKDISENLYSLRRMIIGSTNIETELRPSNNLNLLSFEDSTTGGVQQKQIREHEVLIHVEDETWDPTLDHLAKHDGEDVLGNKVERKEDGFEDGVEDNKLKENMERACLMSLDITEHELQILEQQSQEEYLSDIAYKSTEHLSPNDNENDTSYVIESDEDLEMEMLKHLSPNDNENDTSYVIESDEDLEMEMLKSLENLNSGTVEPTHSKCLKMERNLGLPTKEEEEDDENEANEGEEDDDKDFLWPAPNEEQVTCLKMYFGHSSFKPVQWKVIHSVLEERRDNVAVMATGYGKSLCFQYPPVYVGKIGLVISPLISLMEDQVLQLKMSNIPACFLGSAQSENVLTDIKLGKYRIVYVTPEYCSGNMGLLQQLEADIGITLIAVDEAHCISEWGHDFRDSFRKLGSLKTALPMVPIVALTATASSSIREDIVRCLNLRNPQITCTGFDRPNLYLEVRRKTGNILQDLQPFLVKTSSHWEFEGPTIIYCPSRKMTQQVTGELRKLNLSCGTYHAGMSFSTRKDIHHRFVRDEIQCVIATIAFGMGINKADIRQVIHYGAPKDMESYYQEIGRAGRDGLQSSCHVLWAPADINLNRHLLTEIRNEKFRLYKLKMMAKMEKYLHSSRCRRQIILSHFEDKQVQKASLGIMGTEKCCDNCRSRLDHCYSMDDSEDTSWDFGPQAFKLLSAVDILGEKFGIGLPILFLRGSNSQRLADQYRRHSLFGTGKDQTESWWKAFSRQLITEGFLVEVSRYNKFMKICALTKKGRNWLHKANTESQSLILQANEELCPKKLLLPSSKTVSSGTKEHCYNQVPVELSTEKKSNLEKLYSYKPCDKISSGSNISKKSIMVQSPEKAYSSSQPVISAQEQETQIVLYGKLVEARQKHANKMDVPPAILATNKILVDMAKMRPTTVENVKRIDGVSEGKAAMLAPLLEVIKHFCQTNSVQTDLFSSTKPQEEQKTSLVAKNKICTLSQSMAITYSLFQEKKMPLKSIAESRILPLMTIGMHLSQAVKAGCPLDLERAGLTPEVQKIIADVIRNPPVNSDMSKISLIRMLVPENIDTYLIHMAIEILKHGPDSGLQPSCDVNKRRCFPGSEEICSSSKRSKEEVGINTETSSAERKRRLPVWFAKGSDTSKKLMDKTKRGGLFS
Outline: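 ADP-Glo luminescence measured hydrolysis of ATP by purified, baculovirus-expressed N-terminally tagged full-length WRN. Enzyme (0.5 nM) was preincubated 30 min with compound, then 200 nM ssDNA C6.18 plus 20 μM ATP were added (pre-mix levels) for 30 min at RT. IC50s come from four-parameter fits, geometric mean of at least two trials.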

[4] = target: T1, Full length WRN protein (aa 2-1432); assay: WRN ATPase ADP-Glo biochemical assay, Assay Format B (100 μM ATP); settings: 0.25 nM WRN, 100 nM C6.18 ssDNA, 60 min preincubation, read-out: ATPase ADPGlo AC50 (uM)- Assay Format B

| Compound | AC50 ([1]; Homo sapiens, HT-29, 168 h) [nM] | AC50 ([2]; Homo sapiens, HCT-116, 168 h) [nM] | AC50 [3] [µM] | AC50 [4] [µM] | AC50 [2] [nM] | AC50 [1] [nM] |
| --- | --- | --- | --- | --- | --- | --- |
| C=CC(=O)N1CCc2nn(-c3ccc(C45CC(C4)C5)cc3O)c3c2C(C1)N(C(=O)c1cnc(C(F)(F)F)c(O)c1)CC3 (stereo not drawn) [Compound 92, 1-(2-(4-(bicyclo[1.1.1]pentan-1-yl)-2-hydroxyphenyl)-5-(5-hydroxy-6-(trifluoromethyl)nicotinoyl)-2,3,4,5,5a,6,8,9-octahydro-7H-1,2,5,7-tetraazabenzo[cd]azulen-7-yl)prop-2-en-1-one] | > 3000 | 1 to 100 | < 0.0015 | 0.015 to 0.055 | – | – |
| C=CC(=O)N1CCc2nn(-c3ccc(C4CC4)cc3)c3c2C(C1)N(C(=O)c1cnc(C(F)(F)F)cc1N)CC3 (stereo not drawn) [Compound 128, 1-(5-(4-amino-6-(trifluoromethyl)nicotinoyl)-2-(4-cyclopropylphenyl)-2,3,4,5,5a,6,8,9-octahydro-7H-1,2,5,7-tetraazabenzo[cd]azulen-7-yl)prop-2-en-1-one] | > 3000 | 1 to 100 | < 0.0015 | 0.005 to 0.015 | – | – |
| C=CC(=O)N1CCc2nn(-c3ccc(C45CC(C4)C5)cc3F)c3c2C(C1)N(C(=O)c1ccc(Br)c2[nH]cnc12)CC3 (stereo not drawn) [Compound 30, 1-(2-(4-(bicyclo[1.1.1]pentan-1-yl)-2-fluorophenyl)-5-(7-bromo-1H-benzo[d]imidazole-4-carbonyl)-2,3,4,5,5a,6,8,9-octahydro-7H-1,2,5,7-tetraazabenzo[cd]azulen-7-yl)prop-2-en-1-one] | > 3000 | 1 to 100 | < 0.0015 | 0.005 to 0.015 | – | – |
| C=CC(=O)N1CCc2nn(-c3ccc(C4CC4)cc3)c3c2C(C1)N(C(=O)c1ccc(Br)nc1N)CC3 (stereo not drawn) [Compound 117, 1-(5-(2-amino-6-bromonicotinoyl)-2-(4-cyclopropylphenyl)-2,3,4,5,5a,6,8,9-octahydro-7H-1,2,5,7-tetraazabenzo[cd]azulen-7-yl)prop-2-en-1-one] | > 3000 | 1 to 100 | 0.0015 to 0.005 | 0.005 to 0.015 | – | – |
| C=CC(=O)N1CCc2nn(-c3ccc(C4CCC4)cc3O)c3c2C(C1)N(C(=O)c1ccc(OC(F)F)nc1)CC3 (stereo not drawn) [Compound 74, 1-(2-(4-cyclobutyl-2-hydroxyphenyl)-5-(6-(difluoromethoxy)nicotinoyl)-2,3,4,5,5a,6,8,9-octahydro-7H-1,2,5,7-tetraazabenzo[cd]azulen-7-yl)prop-2-en-1-one] | > 3000 | 1 to 100 | < 0.0015 | 0.005 to 0.015 | – | – |
| C=CC(=O)N1CCc2nn(-c3ccc(C4CC4)cc3O)c3c2C(C1)N(C(=O)c1ccc(Br)nc1N)CC3 (stereo not drawn) [Compound 193, 1-(5-(2-amino-6-bromonicotinoyl)-2-(4-cyclopropyl-2-hydroxyphenyl)-2,3,4,5,5a,6,8,9-octahydro-7H-1,2,5,7-tetraazabenzo[cd]azulen-7-yl)prop-2-en-1-one] | > 3000 | 1 to 100 | < 0.0015 | 0.005 to 0.015 | – | – |
| C=CC(=O)N1CCc2nn(-c3ccc(C45CC(C4)C5)c(F)c3O)c3c2C(C1)N(C(=O)c1cnc(C(F)(F)F)c(O)c1)CC3 (stereo not drawn) [Compound 101, 1-(2-(4-(bicyclo[1.1.1]pentan-1-yl)-3-fluoro-2-hydroxyphenyl)-5-(5-hydroxy-6-(trifluoromethyl)nicotinoyl)-2,3,4,5,5a,6,8,9-octahydro-7H-1,2,5,7-tetraazabenzo[cd]azulen-7-yl)prop-2-en-1-one] | > 3000 | 100 to 250 | 0.0015 to 0.005 | 0.015 to 0.055 | – | – |
| C=CC(=O)N1CCc2nn(-c3ccc(C(C)C)cc3O)c3c2C(C1)N(C(=O)c1cnc(Br)c2[nH]cnc12)CC3 (stereo not drawn) [Compound 22, 1-(5-(4-bromo-3H-imidazo[4,5-c]pyridine-7-carbonyl)-2-(2-hydroxy-4-isopropylphenyl)-2,3,4,5,5a,6,8,9-octahydro-7H-1,2,5,7-tetraazabenzo[cd]azulen-7-yl)prop-2-en-1-one] | > 3000 | 250 to 500 | 0.0015 to 0.005 | 0.015 to 0.055 | – | – |
| C=CC(=O)N1CCc2nn(-c3ccc(C4CCC4)c(F)c3O)c3c2C(C1)N(C(=O)c1cnc(C(F)(F)F)c(O)c1)CC3 (stereo not drawn) [Compound 141, 1-(2-(4-cyclobutyl-3-fluoro-2-hydroxyphenyl)-5-(5-hydroxy-6-(trifluoromethyl)nicotinoyl)-2,3,4,5,5a,6,8,9-octahydro-7H-1,2,5,7-tetraazabenzo[cd]azulen-7-yl)prop-2-en-1-one] | > 3000 | 1 to 100 | < 0.0015 | 0.005 to 0.015 | – | – |
| C=CC(=O)N1CCOc2nn(-c3ccc(C4CCC4)cc3)c3c2C(C1)N(C(=O)c1ccc(Br)c2[nH]cnc12)CC3 (stereo not drawn) [Compound 41, 1-(5-(7-bromo-1H-benzo[d]imidazole-4-carbonyl)-2-(4-cyclobutylphenyl)-2,3,4,5,5a,6,8,9-octahydro-7H-10-oxa-1,2,5,7-tetraazacycloocta[cd]inden-7-yl)prop-2-en-1-one] | > 3000 | 1 to 100 | 0.0015 to 0.005 | 0.015 to 0.055 | – | – |
| C=CC(=O)N1CC(F)Oc2nn(-c3ccc(C(C)C)cc3)c3c2C(C1)N(C(=O)c1ccc(Br)c2[nH]cnc12)CC3 (stereo not drawn) [Compound 54, 1-(5-(7-bromo-1H-benzo[d]imidazole-4-carbonyl)-9-fluoro-2-(4-isopropylphenyl)-2,3,4,5,5a,6,8,9-octahydro-7H-10-oxa-1,2,5,7-tetraazacycloocta[cd]inden-7-yl)prop-2-en-1-one] | > 3000 | – | < 0.0015 | 0.005 to 0.015 | > 1000 | – |
| C=CC(=O)N1CC(OC)c2nn(-c3ccc(C4CCC4)cc3O)c3c2C(C1)N(C(=O)c1cnc(C(F)(F)F)c(O)c1)CC3 (stereo not drawn) [Compound 72, 1-(2-(4-cyclobutyl-2-hydroxyphenyl)-5-(5-hydroxy-6-(trifluoromethyl)nicotinoyl)-9-methoxy-2,3,4,5,5a,6,8,9-octahydro-7H-1,2,5,7-tetraazabenzo[cd]azulen-7-yl)prop-2-en-1-one] | > 3000 | 1 to 100 | < 0.0015 | 0.0015 to 0.005 | – | – |
| C=CC(=O)N1CC(C)c2nn(-c3ccc(C(C)C)cc3)c3c2C(C1)N(C(=O)c1ccc(Br)c2[nH]cnc12)CC3 (stereo not drawn) [Compound 34, 1-(5-(7-bromo-1H-benzo[d]imidazole-4-carbonyl)-2-(4-isopropylphenyl)-9-methyl-2,3,4,5,5a,6,8,9-octahydro-7H-1,2,5,7-tetraazabenzo[cd]azulen-7-yl)prop-2-en-1-one] | – | – | 0.0015 to 0.005 | 0.005 to 0.015 | 250 to 500 | > 3000 |
| C=CC(=O)N1CCc2nn(-c3ccc(C4CCC4)cc3O)c3c2C(C1)N(C(=O)c1ccc(Br)c2[nH]c(CO)nc12)CC3 (stereo not drawn) [Compound 75, 1-(5-(7-bromo-2-(hydroxymethyl)-1H-benzo[d]imidazole-4-carbonyl)-2-(4-cyclobutyl-2-hydroxyphenyl)-2,3,4,5,5a,6,8,9-octahydro-7H-1,2,5,7-tetraazabenzo[cd]azulen-7-yl)prop-2-en-1-one] | > 3000 | 1 to 100 | < 0.0015 | 0.0015 to 0.005 | – | – |
| C=CC(=O)N1CCc2nn(-c3ccc(C45CC(C4)C5)nc3)c3c2C(C1)N(C(=O)c1ccc(Br)c2[nH]cnc12)CC3 (stereo not drawn) [Compound 29, 1-(2-(6-(bicyclo[1.1.1]pentan-1-yl)pyridin-3-yl)-5-(7-bromo-1H-benzo[d]imidazole-4-carbonyl)-2,3,4,5,5a,6,8,9-octahydro-7H-1,2,5,7-tetraazabenzo[cd]azulen-7-yl)prop-2-en-1-one] | > 3000 | 100 to 250 | 0.015 to 0.055 | > 0.055 | – | – |
